Data: ChEMBL document CHEMBL1201862, “PubChem BioAssay data set” (2004)
The source made the active and inactive calls. For most assays here, no stated cut-off is given here; in the data, actives have a measured EC50 and inactives only a lower limit.

Assays:
Streptococcus = assay: Group A Streptococcus viability loss, dose response, counter-screen for streptokinase expression inhibitor project, luminescence, BacTiterGlo (AID 1915); type: functional, organism-based;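 further: potency for reduction of bacterial viability or growth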
[1] = system: Streptococcus sp. 'group A'; assay: growth inhibition of control SK(-) GAS strain, dose response, counter-screen for streptokinase expression inhibitor project, luminescence, kanamycin, BacTiterGlo, confirmation (AID 1900); type: functional, organism-based
[2] = target: T1, COUP transcription factor 2 (Homo sapiens, UniProt P24468); assay: Luminescence-based cell-based high throughput dose response assay to identify inhibitors of COUP-TFII (NR2F2).; type: functional;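 further: HEK293 cells transiently cotransfected with COUP-TFII expression vector and reporter; luciferase reporter luminescence driven by COUP-TFII from the pX2-168 reporter plasmid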
T1 sequence (P24468 whole entry): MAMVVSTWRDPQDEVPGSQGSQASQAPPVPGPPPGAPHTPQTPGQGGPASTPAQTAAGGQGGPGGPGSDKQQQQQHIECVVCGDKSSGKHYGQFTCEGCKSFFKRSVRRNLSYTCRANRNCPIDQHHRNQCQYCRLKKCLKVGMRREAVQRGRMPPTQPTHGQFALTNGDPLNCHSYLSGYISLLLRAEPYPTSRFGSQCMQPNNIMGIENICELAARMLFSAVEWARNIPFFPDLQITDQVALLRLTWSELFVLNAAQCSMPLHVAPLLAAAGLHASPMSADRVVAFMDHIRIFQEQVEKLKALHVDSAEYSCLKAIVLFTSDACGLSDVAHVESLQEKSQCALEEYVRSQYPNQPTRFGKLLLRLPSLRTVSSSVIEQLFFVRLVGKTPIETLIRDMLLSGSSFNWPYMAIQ

BJ [3] = assay: cytotoxicity toward BJ-TERT fibroblasts, dose response, cell-based, RAS-independent, luminescence (AID 1933); type: functional; details: Homo sapiens
[4] = target: ATP-dependent molecular chaperone HSP82 (Candida albicans (strain WO-1) (Yeast), UniProt C4YTQ8); assay: loss of DOC-induced GRE-beta-galactosidase reporter signal, dose response, Hsp90 inhibitor project, S. cerevisiae, luminescence (AID 2400); type: functional, cell-based;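 further: beta-galactosidase luminescence from glucocorticoid response element reporter as proxy for Hsp90 function; inhibitor potency where signal loss means Hsp90 inhibition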
Chain of ATP-dependent molecular chaperone HSP82 (C4YTQ8 whole entry): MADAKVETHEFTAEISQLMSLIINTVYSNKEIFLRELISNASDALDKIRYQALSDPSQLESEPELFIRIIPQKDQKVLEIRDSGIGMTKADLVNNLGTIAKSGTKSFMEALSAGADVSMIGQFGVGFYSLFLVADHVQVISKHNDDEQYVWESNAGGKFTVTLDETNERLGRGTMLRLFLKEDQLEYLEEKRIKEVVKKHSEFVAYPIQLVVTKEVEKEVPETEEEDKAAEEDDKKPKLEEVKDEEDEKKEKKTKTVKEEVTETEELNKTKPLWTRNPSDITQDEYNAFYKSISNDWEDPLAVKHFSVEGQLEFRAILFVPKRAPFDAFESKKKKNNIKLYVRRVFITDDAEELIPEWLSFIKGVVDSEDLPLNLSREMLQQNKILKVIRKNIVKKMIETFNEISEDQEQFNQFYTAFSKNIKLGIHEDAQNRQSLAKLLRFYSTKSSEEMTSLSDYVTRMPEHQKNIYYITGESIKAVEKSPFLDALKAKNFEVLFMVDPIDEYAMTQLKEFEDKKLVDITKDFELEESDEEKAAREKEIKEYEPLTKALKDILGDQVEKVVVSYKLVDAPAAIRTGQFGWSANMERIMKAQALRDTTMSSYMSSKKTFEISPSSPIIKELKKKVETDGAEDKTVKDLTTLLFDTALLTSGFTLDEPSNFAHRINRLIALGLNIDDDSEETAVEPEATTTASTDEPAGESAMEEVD

BJ [5] = assay: cytotoxicity toward BJ-TERT-LT-ST fibroblasts, dose response, cell-based, RAS-independent, luminescence (AID 1935); type: functional; details: Homo sapiens;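 further: BJ fibroblasts immortalized with TERT plus LT and ST oncogenes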
[6] = target: T2, Serine/threonine-protein phosphatase (Candida dubliniensis (strain CD36 / CBS 7987 / NCPF 3949 / NRRLY-17841) (Yeast), UniProt B9W6M3); assay: calcineurin pathway inhibitors in yeast reporter, dose response, S. cerevisiae, CDRE-lacZ, luminescence, secondary (AID 2388); type: functional, cell-based;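 further: yeast reporter cells carrying a calcineurin-responsive lacZ construct stimulated with calcium chloride; luminescent beta-galactosidase reporter signal in whole cells rather than isolated phosphatase activity; potency for inhibition where a drop in reporter signal means calcineurin blockade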
T2 sequence (B9W6M3 whole entry): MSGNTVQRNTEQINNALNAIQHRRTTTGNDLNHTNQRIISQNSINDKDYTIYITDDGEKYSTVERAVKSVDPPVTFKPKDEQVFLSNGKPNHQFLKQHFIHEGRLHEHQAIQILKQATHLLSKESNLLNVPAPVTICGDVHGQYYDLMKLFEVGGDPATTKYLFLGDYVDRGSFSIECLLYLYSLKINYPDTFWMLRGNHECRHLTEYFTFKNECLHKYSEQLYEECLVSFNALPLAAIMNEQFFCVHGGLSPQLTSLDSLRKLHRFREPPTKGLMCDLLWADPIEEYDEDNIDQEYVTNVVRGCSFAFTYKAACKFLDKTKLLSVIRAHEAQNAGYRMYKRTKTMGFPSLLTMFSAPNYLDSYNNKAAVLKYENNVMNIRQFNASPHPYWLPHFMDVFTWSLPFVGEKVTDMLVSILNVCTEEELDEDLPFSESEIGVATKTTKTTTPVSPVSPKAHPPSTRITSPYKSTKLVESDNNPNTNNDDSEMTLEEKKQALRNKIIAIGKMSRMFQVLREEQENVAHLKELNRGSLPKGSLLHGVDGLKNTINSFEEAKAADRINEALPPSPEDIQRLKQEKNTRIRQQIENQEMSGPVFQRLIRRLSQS

INS1 = assay: beta cell apoptosis inhibitors, cytokine rescue, dose response, luminescence, retest (AID 449756); type: functional, cell-based; details: Rattus norvegicus;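 further: cell death triggered by IL-1 beta plus TNF-alpha plus IFN-gamma mixture; protective hits raise ATP signal compared with cytokine alone wells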
[7] = cytotoxicity toward NIH3T3 fibroblasts, dose response, counter-screen, cell-based, ATP luminescence, mouse fibroblasts (AID 2010); type: functional;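 further: cells exposed to compound for about 90 hours before reading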

| Compound | EC50 (Streptococcus) | EC50 [1] | IC50 [2] | EC50 (BJ [3]) | EC50 [4] | EC50 (BJ [5]) | EC50 [6] | AC50 (INS1) | EC50 [7] |
| --- | --- | --- | --- | --- | --- | --- | --- | --- | --- |
| CCOc1cccc(/C=N/NC(=S)Nc2ccccc2[N+](=O)[O-])c1O | 4180 nM (active) | 267 nM (active) | 5050 nM (active) |  |  |  |  |  |  |
| CCCCC(=O)NC(c1ccc(N(CC)CC)cc1)c1ccc2cccnc2c1O (centres undefined) |  |  |  | 717 nM (active) | > 150000 nM (inactive) | 1790 nM (active) | > 180000 nM (inactive) | 380 nM (active) | 884 nM (active) |
